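Grown in 96-well plates, cells were treated for 48 hours with each compound at five concentrations. Insufficient inhibition: endpoint recorded as highest concentration tested. Abbreviation: GI50, concentration required for 50% inhibition of growth. TGI denotes the concentration required for complete inhibition of growth.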
Experiments:
Assay in all cases: DTP human tumour cell line panel, 48 h
[1] = test system: 786-0 renal
[2] = test system: A498 renal
[3] = test system: A549 NSCLC
[4] = test system: ACHN renal
[5] = test system: BT-549 breast
[6] = test system: CAKI-1 renal
[7] = test system: CCRF-CEM leukemia
[8] = test system: COLO 205 colon
[9] = test system: DU-145 prostate
[10] = test system: EKVX NSCLC
[11] = test system: HCC-2998 colon
[12] = test system: HCT-116 colon
[13] = test system: HCT-15 colon
[14] = test system: HL-60(TB) leukemia
[15] = test system: HOP-62 NSCLC
[16] = test system: HOP-92 NSCLC
[17] = test system: HS 578T breast
[18] = test system: HT29 colon
[19] = test system: IGROV1 ovarian
[20] = test system: K-562 leukemia
[21] = test system: KM12 colon
[22] = test system: LOX IMVI melanoma
[23] = test system: M14 melanoma
[24] = test system: MALME-3M melanoma
[25] = test system: MCF7 breast
[26] = test system: MDA-MB-231 breast
[27] = test system: MDA-MB-435
[28] = test system: MDA-MB-468 breast
[29] = test system: MOLT-4 leukemia
[30] = test system: NCI-H226 lung
[31] = test system: NCI-H23 lung
[32] = test system: NCI-H460 lung
[33] = test system: NCI-H522 lung
[34] = test system: OVCAR-3 ovarian
[35] = test system: OVCAR-4 ovarian
[36] = test system: OVCAR-5 ovarian
[37] = test system: OVCAR-8 ovarian
[38] = test system: PC-3 prostate
[39] = test system: RPMI-8226 leukemia
[40] = test system: RXF 393 renal
[41] = test system: SF-268 CNS
[42] = test system: SF-295 CNS
[43] = test system: SF-539 CNS
[44] = test system: SK-MEL-2 melanoma
[45] = test system: SK-MEL-28 melanoma
[46] = test system: SK-MEL-5 melanoma
[47] = test system: SK-OV-3 ovarian
[48] = test system: SN12C renal
[49] = test system: SNB-19 CNS
[50] = test system: SNB-75 CNS
[51] = test system: SR leukemia
[52] = test system: SW-620 colon
[53] = test system: T-47D breast
[54] = test system: TK-10 renal
[55] = test system: U251 CNS
[56] = test system: UACC-257 melanoma
[57] = test system: UACC-62 melanoma
[58] = test system: UO-31 renal

Question: Which GI50 [1] does the source give for `Cc1ccc(-c2cc(-c3cc4ccccc4nc3Cl)[nH]c(=O)n2)cc1` here?
Answer: The GI50 was 4.71 µM.

Question: What about the TGI [1] of the same molecule?
Answer: The TGI was 17.5 µM.

Question: What about the GI50 [2] of the same molecule?
Answer: The GI50 was 14.4 µM.

Question: And the TGI [2]?
Answer: Its TGI is 30.5 µM.

Question: What about the GI50 [3] of the same molecule?
Answer: The GI50 was 22.1 µM.

Question: What about the TGI [3] of the same molecule?
Answer: The TGI was over 100 µM.

Question: What about the GI50 [4] of the same molecule?
Answer: Its GI50 is 16.3 µM.

Question: What about the TGI [4] of the same molecule?
Answer: Its TGI is 32.9 µM.

Question: What about the GI50 [5] of the same molecule?
Answer: The GI50 was 2.73 µM.

Question: And the TGI [5]?
Answer: The TGI was 7.87 µM.

Question: And the GI50 [6]?
Answer: The GI50 was 11.9 µM.

Question: What about the TGI [6] of the same molecule?
Answer: The TGI was 26.5 µM.

Question: What about the GI50 [7] of the same molecule?
Answer: Its GI50 is 3.94 µM.

Question: What about the TGI [7] of the same molecule?
Answer: Its TGI is 35.5 µM.

Question: What about the GI50 [8] of the same molecule?
Answer: The GI50 was 18 µM.

Question: And the TGI [8]?
Answer: Its TGI is 38.8 µM.

Question: What about the GI50 [9] of the same molecule?
Answer: Its GI50 is 13.1 µM.

Question: What about the TGI [9] of the same molecule?
Answer: The TGI was 26.9 µM.

Question: What about the GI50 [10] of the same molecule?
Answer: Its GI50 is 17.6 µM.

Question: And the TGI [10]?
Answer: The TGI was 54.8 µM.

Question: And the GI50 [11]?
Answer: Its GI50 is 15.3 µM.

Question: And the TGI [11]?
Answer: The TGI was 29.4 µM.

Question: And the GI50 [12]?
Answer: The GI50 was 3.31 µM.

Question: And the TGI [12]?
Answer: Its TGI is 14 µM.

Question: And the GI50 [13]?
Answer: The GI50 was 13 µM.

Question: What about the TGI [13] of the same molecule?
Answer: The TGI was 45.1 µM.

Question: And the GI50 [14]?
Answer: The GI50 was 1.89 µM.

Question: And the TGI [14]?
Answer: Its TGI is 14.6 µM.

Question: What about the GI50 [15] of the same molecule?
Answer: The GI50 was 14.2 µM.

Question: What about the TGI [15] of the same molecule?
Answer: Its TGI is 31.5 µM.

Question: And the GI50 [16]?
Answer: Its GI50 is 2.73 µM.

Question: What about the TGI [16] of the same molecule?
Answer: Its TGI is 14.5 µM.

Question: What about the GI50 [17] of the same molecule?
Answer: The GI50 was 13 µM.

Question: What about the TGI [17] of the same molecule?
Answer: The TGI was 83.4 µM.

Question: What about the GI50 [18] of the same molecule?
Answer: Its GI50 is 16 µM.

Question: And the TGI [18]?
Answer: The TGI was 34.6 µM.

Question: And the GI50 [19]?
Answer: The GI50 was 16 µM.

Question: And the TGI [19]?
Answer: The TGI was 37.2 µM.

Question: And the GI50 [20]?
Answer: The GI50 was 2.61 µM.

Question: What about the TGI [20] of the same molecule?
Answer: Its TGI is 13.2 µM.

Question: What about the GI50 [21] of the same molecule?
Answer: Its GI50 is 7.63 µM.

Question: And the TGI [21]?
Answer: Its TGI is 24.8 µM.

Question: And the GI50 [22]?
Answer: Its GI50 is 8.43 µM.

Question: What about the TGI [22] of the same molecule?
Answer: The TGI was 23.9 µM.

Question: And the GI50 [23]?
Answer: Its GI50 is 10.7 µM.

Question: And the TGI [23]?
Answer: Its TGI is 30.1 µM.

Question: And the GI50 [24]?
Answer: The GI50 was 14.8 µM.

Question: What about the TGI [24] of the same molecule?
Answer: Its TGI is 29.1 µM.

Question: And the GI50 [25]?
Answer: Its GI50 is 6.08 µM.

Question: What about the TGI [25] of the same molecule?
Answer: Its TGI is 22.4 µM.

Question: What about the GI50 [26] of the same molecule?
Answer: Its GI50 is 13.9 µM.

Question: And the TGI [26]?
Answer: Its TGI is 32.4 µM.

Question: What about the GI50 [27] of the same molecule?
Answer: Its GI50 is 14.9 µM.

Question: What about the TGI [27] of the same molecule?
Answer: The TGI was 31.5 µM.

Question: What about the GI50 [28] of the same molecule?
Answer: Its GI50 is 12.7 µM.

Question: What about the TGI [28] of the same molecule?
Answer: The TGI was 44.3 µM.

Question: And the GI50 [29]?
Answer: The GI50 was 2.66 µM.

Question: What about the TGI [29] of the same molecule?
Answer: Its TGI is 12.4 µM.

Question: What about the GI50 [30] of the same molecule?
Answer: The GI50 was 13.1 µM.

Question: What about the TGI [30] of the same molecule?
Answer: The TGI was 37.2 µM.

Question: And the GI50 [31]?
Answer: The GI50 was 12.2 µM.

Question: And the TGI [31]?
Answer: The TGI was 30.2 µM.

Question: And the GI50 [32]?
Answer: The GI50 was 10 µM.

Question: And the TGI [32]?
Answer: The TGI was 29.3 µM.

Question: And the GI50 [33]?
Answer: Its GI50 is 13.9 µM.

Question: And the TGI [33]?
Answer: Its TGI is 27.3 µM.

Question: What about the GI50 [34] of the same molecule?
Answer: The GI50 was 10.3 µM.

Question: What about the TGI [34] of the same molecule?
Answer: Its TGI is 22.5 µM.

Question: And the GI50 [35]?
Answer: Its GI50 is 20.9 µM.

Question: What about the TGI [35] of the same molecule?
Answer: Its TGI is over 100 µM.

Question: What about the GI50 [36] of the same molecule?
Answer: The GI50 was 16.9 µM.

Question: What about the TGI [36] of the same molecule?
Answer: Its TGI is 32.5 µM.

Question: And the GI50 [37]?
Answer: The GI50 was 18.5 µM.

Question: And the TGI [37]?
Answer: Its TGI is 76.8 µM.

Question: What about the GI50 [38] of the same molecule?
Answer: The GI50 was 12 µM.

Question: What about the TGI [38] of the same molecule?
Answer: The TGI was 37 µM.

Question: And the GI50 [39]?
Answer: The GI50 was 3.17 µM.

Question: What about the TGI [39] of the same molecule?
Answer: The TGI was 17.8 µM.

Question: And the GI50 [40]?
Answer: Its GI50 is 14.6 µM.

Question: What about the TGI [40] of the same molecule?
Answer: The TGI was 32.6 µM.

Question: And the GI50 [41]?
Answer: The GI50 was 13.8 µM.

Question: What about the TGI [41] of the same molecule?
Answer: Its TGI is 32.3 µM.

Question: And the GI50 [42]?
Answer: Its GI50 is 16.9 µM.

Question: What about the TGI [42] of the same molecule?
Answer: Its TGI is 35.1 µM.

Question: What about the GI50 [43] of the same molecule?
Answer: The GI50 was 12.1 µM.

Question: What about the TGI [43] of the same molecule?
Answer: Its TGI is 24.7 µM.

Question: And the GI50 [44]?
Answer: Its GI50 is 14.4 µM.

Question: And the TGI [44]?
Answer: The TGI was 30.6 µM.

Question: And the GI50 [45]?
Answer: Its GI50 is 16.2 µM.

Question: What about the TGI [45] of the same molecule?
Answer: The TGI was 30.2 µM.

Question: And the GI50 [46]?
Answer: Its GI50 is 17.7 µM.

Question: And the TGI [46]?
Answer: Its TGI is 33.7 µM.

Question: What about the GI50 [47] of the same molecule?
Answer: Its GI50 is 29.2 µM.

Question: What about the TGI [47] of the same molecule?
Answer: The TGI was over 100 µM.

Question: And the GI50 [48]?
Answer: The GI50 was 15.8 µM.

Question: And the TGI [48]?
Answer: The TGI was 33 µM.

Question: What about the GI50 [49] of the same molecule?
Answer: Its GI50 is 11.3 µM.

Question: And the TGI [49]?
Answer: Its TGI is 23.9 µM.

Question: And the GI50 [50]?
Answer: The GI50 was 11.4 µM.

Question: And the TGI [50]?
Answer: The TGI was 40.2 µM.

Question: And the GI50 [51]?
Answer: Its GI50 is 1.2 µM.

Question: What about the TGI [51] of the same molecule?
Answer: Its TGI is 4.33 µM.

Question: What about the GI50 [52] of the same molecule?
Answer: The GI50 was 13.8 µM.

Question: And the TGI [52]?
Answer: Its TGI is 34.4 µM.

Question: And the GI50 [53]?
Answer: The GI50 was 16.4 µM.

Question: And the TGI [53]?
Answer: Its TGI is 77.3 µM.

Question: What about the GI50 [54] of the same molecule?
Answer: Its GI50 is 15.1 µM.

Question: And the TGI [54]?
Answer: Its TGI is 29.7 µM.

Question: What about the GI50 [55] of the same molecule?
Answer: Its GI50 is 9.95 µM.

Question: What about the TGI [55] of the same molecule?
Answer: The TGI was 28.6 µM.

Question: What about the GI50 [56] of the same molecule?
Answer: The GI50 was 16.7 µM.

Question: What about the TGI [56] of the same molecule?
Answer: Its TGI is 35.7 µM.

Question: And the GI50 [57]?
Answer: Its GI50 is 14 µM.

Question: What about the TGI [57] of the same molecule?
Answer: The TGI was 30 µM.

Question: What about the GI50 [58] of the same molecule?
Answer: Its GI50 is 10.4 µM.

Question: What about the TGI [58] of the same molecule?
Answer: Its TGI is 22.2 µM.
